SMILES strings stand for the structures. Where “and” joins values, the source holds several entries; their conditions need not be identical. Identical values can stand only once.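 1) Cells in 96-well plates. 2) Compound, 48 h, 5 concentrations. 3) Linear interpolation between surrounding doses. 4) Unreached endpoint = highest concentration. GI50: concentration for 50% inhibition of growth. TGI: total growth inhibition.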

The results in this text go back to PubChem BioAssay (NCI).

Assay in all cases: growth of human tumour cells (NCI), 48 h
In assay [1] the test system is HS 578T breast.
Assay [2] concerns TK-10 renal.
The subject of assay [3] is M19-MEL melanoma.
The test system of assay [4] is HCT-15 colon.
The subject of assay [5] is NCI-H460 lung.
The test system of assay [6] is HOP-18 NSCLC.
The test system of assay [7] is HOP-62 NSCLC.
For assay [8], the system named is ACHN renal.
Assay [9] deals with A498 renal.
For assay [10], the system named is DU-145 prostate.

For `CCC(C)SC1SCC2C(=O)N(C)C3(CC3C)C(=O)OCC(NC(=O)c3nc4ccccc4cc3O)C(=O)NC(C)C(=O)N(C)C1C(=O)N(C)C1(CC1C)C(=O)OCC(NC(=O)c1nc3ccccc3cc1O)C(=O)NC(C)C(=O)N2C` (stereo unspecified), the TGI came to 0.000309 µM in assay [1]; 0.000236 µM in assay [3]; 0.0538 µM in assay [4]; 0.0262 µM in [5]; 24.1 µM in assay [6]; 0.00155 µM in assay [7]. Also, the TGI in [8] worked out at 0.221 µM; in assay [9] it was 0.000492 µM. Also, the values for the GI50 in [2] and in [8] were 0.000654 µM and 0.000296 µM, respectively.

Consider `CCOc1ccc(NC2=CC(=O)C(=O)c3ccccc32)cc1`, for which the TGI turned out to be 5.05 µM in assay [10]; 5.9 µM in assay [1]; 21.6 µM in [2]; 2.03 µM in assay [3]; 6.72 µM in [4]; 6.97 µM in assay [5]. Also, the TGI in assay [6] amounted to 4.61 µM; in assay [7], 12 µM; in [8], 5.74 µM; in assay [9] it was 12.2 µM.

On to `O=C1c2ccccc2C(=O)c2c(/C=C\N3CCCCC3)ccnc21`, for which the TGI was 2.96 µM in assay [10]; 4.32 µM in assay [1]; 34.4 µM in [2]; 0.563 µM in [3]; 6.41 µM in [4]; 4.91 µM in assay [5]. The TGI was found to be 2.96 µM in assay [6], 13.9 µM in assay [7], 21.1 µM in assay [8] and 31.8 µM in [9].

As for `CCCC/C=C/C=C/C=C/CCCCCCCC(=O)OCC(COC(=O)CCCCCCC/C=C/C1C=CC(CCCC)C(C(=O)O)C1C(=O)O)OC(=O)CCCCCCC/C=C/C=C/C=C/CCCC` (stereo unspecified) (tested in a mixture with another compound), the TGI is 37.7 µM in assay [2]; 36.9 µM in assay [3]; 30.8 µM in assay [4]; over 100 µM in assay [5]; 47.8 µM in [6]; 38.6 µM in [7]. For the same compound, the TGI in assay [8] was 33.2 µM; in assay [9], 34.4 µM.

`O=C(Nc1nc(=S)[nH][nH]1)C(=O)C(C(=O)c1ccc2ccccc2c1)C1OC(=O)c2ccccc21` (stereo unspecified): the TGI in assay [2] was 80.3 µM; in assay [3], 30.6 µM; in assay [4] it was 78.5 µM; in assay [5], over 100 µM; in assay [6], 40.2 µM; in assay [7] it was 45.4 µM. Further, the TGI in assay [8] and in assay [9] was over 100 µM in each case.

As to `CN(C)C(=S)/N=c1\ssc(=S)n1C1CCCCC1`, the TGI in assay [2], in [3], in assay [4], in [5], in [6] and in [7] was over 100 µM each time. Besides, the TGI in assay [8] and in assay [9] was over 100 µM each time.

In the case of `Cc1[cH-]c(=O)n(-c2ccccc2)n1.[Au+].[Au].c1ccc([PH+](c2ccccc2)c2ccccc2)cc1.c1ccc([PH+](c2ccccc2)c2ccccc2)cc1`, the GI50 in assay [2] was 16.6 µM; in [3], 28.1 µM; in assay [4] it was 11.8 µM; in assay [5], 14.4 µM; in [6] it was 4.06 µM and 10.3 µM; in [7], 23.7 µM. The results for the GI50 in assay [8] and in [9] were 22.3 µM and 23.9 µM, respectively. Moreover, the TGI in [2] was 31.9 µM; in assay [3] it was over 100 µM; in [4], 29.3 µM; in assay [5], 37.7 µM; in assay [6], 27 µM; in [7], 54 µM. Besides, the TGI was 58.6 µM in assay [8] and 38.9 µM in assay [9].

With `CN1C(=O)C(=O)N2c3ccc(Cl)cc3C3(c4ccccc4)N=CC12O3` (stereo unspecified), the TGI in [2] stood at 18.1 µM; in assay [3] it was 13.7 µM; in [4], 13.3 µM; in assay [5], 25.8 µM; in assay [6], 34.6 µM; in assay [7] it was 30.7 µM. In addition, the TGI in assay [8] is 17.7 µM; in [9] it was 22.9 µM.

For the compound `COc1cc2c(cc1OC)C(Cl)C(c1ccc(F)cc1)=C2Cl` (stereo unspecified), the TGI was 37.5 µM in assay [10]; over 100 µM in assay [1]; 28.5 µM in assay [2]; 38.7 µM in [3]; 28.4 µM in assay [4]; 24.8 µM in [5]. The TGI in assay [6] is 30.5 µM; in [7], 30.1 µM; in assay [8] it was 26.1 µM; in assay [9] it was 29.9 µM.

As to `CCOC(=O)C1Sc2ccccc2N=C1C` (stereo unspecified), the TGI in [2], in [3], in [4], in assay [5], in assay [6] and in assay [7] was over 100 µM throughout. Also, the TGI in assay [8] and in assay [9] was over 100 µM each time.

For the compound `O=C1C(Br)=C(Br)C(=O)c2ccc(=O)ccc21`, the TGI in [10] is over 100 µM; in assay [1], over 84.5 µM; in [2] it was 37.2 µM; in assay [3] it was 32.5 µM; in assay [4] it was 38.7 µM; in assay [5] it was 67.6 µM. Further, the TGI in [6] is 57 µM; in [7], over 79.2 µM; in [8], 33.8 µM; in assay [9], over 100 µM.
